The source of these data is patent US8475783B2, “Apparatus and method for generating carbon dioxide as an attractant for biting arthropods” (priority 2011, dated 2013).

This assay deals with mosquitoes. Kind of assay: Field mosquito collection with CDC-type mosquito trap baited with carbon dioxide. The assay is classed as in vivo. Conditions: for mosquitoes collected: carbon dioxide flow rate 250 mL/min. Here is the method: As in Example 2, except that the sodium bicarbonate was delivered at 0.94 g·min so as to give a carbon dioxide flow rate of 250 mL/min. The gas outlet was coupled to a CDC-type mosquito trap, available from the John W. Hock Company of Gainesville Fla., and allowed to collect mosquitoes for 12 hours. For comparison, a similar trap but with carbon dioxide from a tank was placed about 100 m away. Sites were selected so as to provide a testing area that is known to be infested by mosquitoes and to provide similar terrain. In the comparison apparatus care was taken to use the same carbon dioxide flow rate.

The structures appear in SMILES notation.

As for `O=C=O` [CO2 Gas Tank, carbon dioxide], the mosquitoes collected (Aug. 2, 2010, 12 hours) was 12; the mosquitoes collected (Aug. 5, 2010, 12 hours) is listed as 1; the mosquitoes collected (Jul. 8, 2010, 12 hours) was found to be 73; the mosquitoes collected (Jul. 12, 2010, 12 hours) came out at 49; the mosquitoes collected (Jul. 14, 2010, 12 hours) came to 14; the mosquitoes collected (Jul. 15, 2010, 12 hours) is 73. In addition, the mosquitoes collected by setting is: (Jul. 20, 2010, 12 hours) 53; (Jun. 23, 2010, 12 hours) 99; (Jun. 29, 2010, 12 hours) 34. The “Total collected (mosquitoes)” value (sum over 9 non-consecutive days, 12 hours each, 250 mL/min carbon dioxide) stood at 408.
